From PubChem BioAssay AID330 (DTP/NCI, 2004)
Values joined by “and” are separate entries in the source; they are usually repeats but may differ in a detail not shown here. Equal values may be shown once. Toxic doses and inconclusive results are not listed.

Tested on: P388 leukemia ip, CD2F1 mice, survival T/C
Test: NCI In Vivo Anticancer Drug Screen. Data for tumor model P388 Leukemia (intraperitoneal) in CD2F1 (CDF1) mice
Details: endpoint: median survival time, higher = longer survival
In short: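 Mice carrying the transplanted tumor received test compound or vehicle. Survival was recorded in each group, and the value is the treated-group measurement divided by that of the vehicle-treated control group.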

[1] = dose: 60.0 mg/kg/injection, schedule: Q01DX005 (ip), vehicle: Klucel (hydroxypropylcellulose) (HPC)
[2] = dose: 12.5 mg/kg/injection, schedule: Q01DX009 (ip), vehicle: saline with Tween-80
[3] = dose: 25.0 mg/kg/injection, schedule: Q01DX009 (ip), vehicle: saline with Tween-80
[4] = dose: 50.0 mg/kg/injection, schedule: Q01DX009 (ip), vehicle: saline with Tween-80
[5] = dose: 50.0 mg/kg/injection, schedule: Q01DX005 (ip), vehicle: saline with Tween-80
[6] = dose: 60.0 mg/kg/injection, schedule: Q01DX005 (ip), vehicle: saline with Tween-80
[7] = dose: 100.0 mg/kg/injection, schedule: Q01DX005 (ip), vehicle: saline with Tween-80
[8] = dose: 120.0 mg/kg/injection, schedule: Q01DX005 (ip), vehicle: saline with Tween-80
[9] = dose: 200.0 mg/kg/injection, schedule: Q01DX005 (ip), vehicle: saline with Tween-80
[10] = dose: 240.0 mg/kg/injection, schedule: Q01DX005 (ip), vehicle: saline with Tween-80
[11] = dose: 100.0 mg/kg/injection, schedule: Q01DX009 (ip), vehicle: saline with Tween-80
[12] = dose: 200.0 mg/kg/injection, schedule: Q01DX009 (ip), vehicle: saline with Tween-80
[13] = dose: 400.0 mg/kg/injection, schedule: Q01DX009 (ip), vehicle: saline with Tween-80
[14] = dose: 120.0 mg/kg/injection, schedule: Q01DX005 (ip), vehicle: Klucel (hydroxypropylcellulose) (HPC)
[15] = dose: 240.0 mg/kg/injection, schedule: Q01DX005 (ip), vehicle: Klucel (hydroxypropylcellulose) (HPC)

## COc1cc(NS(C)(=O)=O)ccc1Nc1c2ccc(N(C)C)cc2nc2cc(N(C)C)ccc12
dose: 7.5 mg/kg/injection, schedule: Q01DX005 (ip), vehicle: Klucel (hydroxypropylcellulose) (HPC)
  T/C: 162 % of control
dose: 15.0 mg/kg/injection, schedule: Q01DX005 (ip), vehicle: Klucel (hydroxypropylcellulose) (HPC)
  T/C: 168 % of control and 173 % of control
dose: 30.0 mg/kg/injection, schedule: Q01DX005 (ip), vehicle: Klucel (hydroxypropylcellulose) (HPC)
  T/C: 174 % of control and 182 % of control
[1]
  T/C: 98 % of control and 86 % of control

## Cc1nn(-c2ccc(S(=O)(=O)[O-])cc2)c([O-])c1N=[N+](C)c1ccc(-c2ccc(N=Nc3ccc4c(S(=O)(=O)[O-])cc(S(=O)(=O)[O-])c(N)c4c3[O-])c([O-])c2)cc1[O-].[Cu+2].[Cu+2].[Na+]
dose: 3.12 mg/kg/injection, schedule: Q01DX009 (ip), vehicle: saline with Tween-80
  T/C: 96 % of control
dose: 6.25 mg/kg/injection, schedule: Q01DX009 (ip), vehicle: saline with Tween-80
  T/C: 96 % of control
[2]
  T/C: 99 % of control and 86 % of control
dose: 12.5 mg/kg/injection, schedule: Q01DX009 (ip), vehicle: saline
  T/C: 97 % of control
dose: 50.0 mg/kg/injection, schedule: Q01DX009 (ip), vehicle: saline
  T/C: 96 % of control

## COc1cc[n+](CCc2c[nH]c3ccccc23)cc1
[2]
  T/C: 109 % of control
[3]
  T/C: 104 % of control
[4]
  T/C: 113 % of control

## O=C(O)CCC(=O)C(Cc1ccccc1)NC(=O)c1ccccc1 (stereo not given)
[5]
  T/C: 94 % of control
[6]
  T/C: 91 % of control
[7]
  T/C: 89 % of control
[8]
  T/C: 100 % of control
[9]
  T/C: 100 % of control
[10]
  T/C: 98 % of control

## C=C(CN(C)C)C(=O)c1ccc(OC)cc1OC
dose: 1.9 mg/kg/injection, schedule: Q04DX002 (ip), vehicle: saline
  T/C: 95 % of control
dose: 3.8 mg/kg/injection, schedule: Q04DX002 (ip), vehicle: saline
  T/C: 106 % of control
dose: 7.5 mg/kg/injection, schedule: Q04DX002 (ip), vehicle: saline
  T/C: 102 % of control and 98 % of control

## CCC[CH2][Sn]1([CH2]CCC)[O]c2ccccc2[O]1
dose: 0.39 mg/kg/injection, schedule: Q01DX005 (ip), vehicle: saline with Tween-80
  T/C: 103 % of control
dose: 0.78 mg/kg/injection, schedule: Q01DX005 (ip), vehicle: saline with Tween-80
  T/C: 106 % of control
dose: 1.56 mg/kg/injection, schedule: Q01DX005 (ip), vehicle: saline with Tween-80
  T/C: 109 % of control and 124 % of control
dose: 3.12 mg/kg/injection, schedule: Q01DX005 (ip), vehicle: Klucel (hydroxypropylcellulose) (HPC)
  T/C: 100 % of control
dose: 3.12 mg/kg/injection, schedule: Q01DX005 (ip), vehicle: saline with Tween-80
  T/C: 123 % of control
dose: 6.25 mg/kg/injection, schedule: Q01DX005 (ip), vehicle: Klucel (hydroxypropylcellulose) (HPC)
  T/C: 105 % of control
dose: 12.5 mg/kg/injection, schedule: Q01DX005 (ip), vehicle: Klucel (hydroxypropylcellulose) (HPC)
  T/C: 107 % of control

## CC1(C)COSOC1
dose: 100.0 mg/kg/injection, schedule: Q01DX001 (ip), vehicle: Klucel (hydroxypropylcellulose) (HPC)
  T/C: 98 % of control
dose: 200.0 mg/kg/injection, schedule: Q01DX001 (ip), vehicle: Klucel (hydroxypropylcellulose) (HPC)
  T/C: 104 % of control
dose: 400.0 mg/kg/injection, schedule: Q01DX001 (ip), vehicle: Klucel (hydroxypropylcellulose) (HPC)
  T/C: 104 % of control

## c1ccc2cc(-c3nc4cccc5c4n3CCC5)ccc2c1
[11]
  T/C: 105 % of control
[12]
  T/C: 95 % of control
[13]
  T/C: 115 % of control

## Fc1ccc(NC(=S)NC2CC2)c(F)c1
[4]
  T/C: 104 % of control
[11]
  T/C: 104 % of control

## C1COCCCOCCCOCCCC2(CCCOCCCOC1)CO2
[5]
  T/C: 110 % of control
[7]
  T/C: 86 % of control
[9]
  T/C: 109 % of control

## COc1cc(C(=O)N/N=C/c2cccc([N+](=O)[O-])c2)cc(OC)c1OC
[4]
  T/C: 102 % of control and 115 % of control
[11]
  T/C: 123 % of control
[12]
  T/C: 163 % of control
[13]
  T/C: 168 % of control

## O=C(N=Nc1c(Cl)c(O)c2ccccc2c1O)C(=O)Nc1ccc(Cl)c([N+](=O)[O-])c1
[4]
  T/C: 113 % of control
[11]
  T/C: 112 % of control

## c1cc2cc3c(cc2cc1CC1NCCc2cc4c(cc21)OCO4)OCO3 (stereo not given)
dose: 12.5 mg/kg/injection, schedule: Q01DX009 (ip), vehicle: Klucel (hydroxypropylcellulose) (HPC)
  T/C: 100 % of control
dose: 25.0 mg/kg/injection, schedule: Q01DX009 (ip), vehicle: Klucel (hydroxypropylcellulose) (HPC)
  T/C: 91 % of control
dose: 50.0 mg/kg/injection, schedule: Q01DX009 (ip), vehicle: Klucel (hydroxypropylcellulose) (HPC)
  T/C: 107 % of control
dose: 100.0 mg/kg/injection, schedule: Q01DX009 (ip), vehicle: Klucel (hydroxypropylcellulose) (HPC)
  T/C: 91 % of control

## C(C#Cc1ccccc1)#Cc1ccccc1
[3]
  T/C: 98 % of control
[4]
  T/C: 99 % of control
[11]
  T/C: 96 % of control
[12]
  T/C: 98 % of control

## COc1cc(/C=C/C(N)=O)cc(OC)c1OC
dose: 50.0 mg/kg/injection, schedule: Q04DX003 (ip), vehicle: saline with Tween-80
  T/C: 94 % of control
dose: 100.0 mg/kg/injection, schedule: Q04DX003 (ip), vehicle: saline with Tween-80
  T/C: 90 % of control
dose: 200.0 mg/kg/injection, schedule: Q04DX003 (ip), vehicle: saline with Tween-80
  T/C: 99 % of control
dose: 400.0 mg/kg/injection, schedule: Q04DX003 (ip), vehicle: saline with Tween-80
  T/C: 100 % of control

## NC(CCC(=O)NC(CSSCC(NC(=O)CCC(N)C(=O)O)C(=O)O)C(=O)O)C(=O)O (stereo not given)
dose: 12.5 mg/kg/injection, schedule: Q01DX005 (ip), vehicle: saline
  T/C: 94 % of control
dose: 25.0 mg/kg/injection, schedule: Q01DX005 (ip), vehicle: saline
  T/C: 99 % of control
dose: 50.0 mg/kg/injection, schedule: Q01DX005 (ip), vehicle: saline
  T/C: 99 % of control

## C/C=C(\CC)C(C#N)O[Si](C)(C)C (stereo not given)
[6]
  T/C: 93 % of control
[8]
  T/C: 98 % of control

## COc1ccc(CS(=O)(=O)c2cnc(=O)[nH]c2N)cc1OC
dose: 100.0 mg/kg/injection, schedule: Q04DX002 (ip), vehicle: saline
  T/C: 93 % of control
dose: 200.0 mg/kg/injection, schedule: Q04DX002 (ip), vehicle: saline
  T/C: 101 % of control
dose: 400.0 mg/kg/injection, schedule: Q04DX002 (ip), vehicle: saline
  T/C: 93 % of control

## O=[N+]([O-])c1ccc(Nc2cn[nH]n2)cc1
[1]
  T/C: 100 % of control
[14]
  T/C: 102 % of control
[15]
  T/C: 99 % of control

## CNC(=O)c1c(-c2ccc(F)cc2)noc1C
[6]
  T/C: 103 % of control
[8]
  T/C: 100 % of control
[10]
  T/C: 103 % of control

## CCCCOCN1C(=O)NC(c2ccccc2)(c2ccccc2)C1=O
[1]
  T/C: 94 % of control
[14]
  T/C: 94 % of control
[15]
  T/C: 94 % of control

## COc1cccc2c1C(=O)c1c(O)c3c(c(O)c1C2=O)C/C(=N/O)CC3OC1CC(NC(=O)C(F)(F)F)C(O)C(C)O1 (stereo not given)
dose: 1.56 mg/kg/injection, schedule: Q01DX009 (ip), vehicle: other
  T/C: 106 % of control
dose: 3.13 mg/kg/injection, schedule: Q01DX009 (ip), vehicle: other
  T/C: 88 % of control
dose: 6.25 mg/kg/injection, schedule: Q01DX009 (ip), vehicle: other
  T/C: 92 % of control
dose: 12.5 mg/kg/injection, schedule: Q01DX009 (ip), vehicle: other
  T/C: 110 % of control

## CCCCN=C(N)N/N=C(\C)c1ccc2c(c1)Cc1ccccc1-2
dose: 25.0 mg/kg/injection, schedule: Q04DX002 (ip), vehicle: saline with Tween-80
  T/C: 104 % of control

## Cc1n[nH]c(=O)n2c1nc1ccccc12
[1]
  T/C: 95 % of control
[14]
  T/C: 95 % of control
[15]
  T/C: 92 % of control

## COC(=O)C1(CC(=O)c2ccco2)NC(=S)NC(=O)C1C#N (stereo not given)
[6]
  T/C: 98 % of control
[8]
  T/C: 94 % of control
[10]
  T/C: 93 % of control
